# Laboratory results published in patent publication EP4789666A1, “RNA M6A REGULATOR COMPOSITION, PREPARATION METHOD THEREFOR, AND USE THEREOF” (SHANGHAI MERNA THERAPEUTICS CO. LTD, priority 2023, dated 2025).
# Where two headings read alike, the source gives them in different places.
# Key:
# [1] = Pharmacokinetic study after single topical administration of ointment to the skin of SD rats (LC-MS/MS); assay type: in vivo; conditions: rat, 20 mg/cm^2, SD rats, 20 mg/cm^2, 20 cm^2, mean
# Protocol: 6 SD rats were divided into two groups, with 3 rats per group, where one group received an ointment containing the compound of formula (I) by single topical application to the dorsal skin at 20 mg/cm^2 (3% suspension ointment), with an application area of 20 cm^2, and the other group received an ointment containing the compound of formula (I) by single topical application to the dorsal skin at 20 mg/cm^2 (10% suspension ointment), with an application area of 20 cm^2. The plasma concentration and dorsal skin tissue homogenate concentration of the compound of formula (I) were determined by an LC-MS/MS method.
# [2] = Pharmacokinetic study after single topical administration of ointment to the skin of CD-1 mice (LC-MS/MS); assay type: in vivo; conditions: 3% suspension ointment
# Protocol: 6 CD-1 mice were divided into 2 groups, with 3 mice per group, and then respectively received an ointment containing the compound of formula (I) by single topical administration to the backs at 1 mg/cm^2 (3% suspension ointment) with an application area of 1 cm^2. The plasma concentration and skin tissue homogenate concentration of the compound of formula (I) were determined by an LC-MS/MS method.
# [3] = system: rat models with hand-foot skin reaction; test: Rat models with hand-foot skin reaction, topical ointment (incidence rate, histology, immunohistochemistry); assay type: in vivo, SD rats; conditions: for Incidence rate, left paw: once daily 30 days; for Incidence rate, right paw: right paw with blank matrix ointment (self-control)
# Protocol: After adaptive feeding for one week, SD rats (with a body weight of approximately 200 g) were randomly divided into groups with balanced body weight, with 12 rats in each group. Modeling drugs (including sorafenib, erlotinib, afatinib, and osimertinib) were respectively dissolved in a solution containing 5% of DMSO, 45% of PEG400, and 50% of H2O, and the modeling drugs were diluted to required concentrations and then administered once daily by gavage at doses shown in Table 3. After administration by gavage for 1 hour, 0.05 g of ointments containing different mass proportions of test compounds were evenly applied to left paws of the rats, a blank matrix ointment was applied to right paws of the rats to serve as a self-control, and no ointment was applied to the rats in a blank control group. After drug application, four limbs were continuously immobilized for 2 hours, then wiped with clean water to remove the residual drugs, removed from immobilization, and restored to free movement. The modeling drugs, the blank matrix ointment, and the ointments containing the test compounds were all administered once daily. After continuous administration for 30 days, the rats were euthanized, and paw plantar skin tissues were collected, fixed in 10% neutral formalin, […]. The ointments for the test compounds were prepared by mixing the compounds, white beeswax, white petrolatum, and light liquid paraffin in specific ratios (weight ratios of 3 ointments were respectively 1:18:58:23, 3:18:57:22, and 10:20:40:30). The blank matrix ointment was prepared by mixing white beeswax, white petrolatum, and light liquid paraffin in a specific ratio (weight ratio of 18:60:22).
# Tissue staining: After dewaxing and rehydration, the paw plantar skin tissue sections of the above rats were stained in a hematoxylin solution for several minutes, cleaned, and placed in 1% acid alcohol for soaking until the sections faded to light blue-red. After cleaning with running water for 5 minutes, the sections were stained with eosin for 2-3 minutes, cleaned to remove excess dyes, dehydrated, then permeabilized by adding xylene for several minutes, and sealed and fixed with a neutral resin. The stratum corneum was observed under an optical microscope, and the thickness of the epidermal stratum corneum was measured using Dmetrix software.
# Immunohistochemical staining: After dewaxing and hydration, the paw plantar skin tissue sections of the above rats were incubated with 3% H2O2 at room temperature for 30 minutes and blocked with 10% goat serum for 30 minutes after antigen retrieval. A KRT1 antibody (Abcam, ab93652) and a Loricrin antibody (Abcam, ab183646) were added dropwise, the sections were incubated overnight at 4°C, and an HRP secondary antibody (ZSGB-BIO, PV-6001) and a DAB kit (ZSG-BIO, ZLI9017) were added for color development. The sections were re-stained with hematoxylin, cleaned, and sealed and fixed with a neutral resin, and the expression amounts of KRT1 and Loricrin were observed under an optical microscope.
# An incidence rate calculation method involves a proportion of animals in each group meeting the above criteria for determining successful modeling, that is, incidence rate = (number of successfully modeled rats/total number of rats in the group)*100%. […]
# [4] = Pharmacokinetic study after single topical administration of ointment to the skin of Bama miniature pigs (LC-MS/MS); assay type: in vivo; conditions: pig, 3% suspension ointment, 20 mg/cm^2, mean
# Protocol: 2 Bama miniature pigs respectively received an ointment containing the compound of formula (I) by single topical application to the dorsal and abdominal skin at 20 mg/cm^2 (3% suspension ointment), with a total application area of 6.8% of a body surface area, and a ratio of application areas between the dorsal and abdominal skin being approximately 1:1. The plasma concentration and skin tissue homogenate concentration of the compound of formula (I) were determined by an LC-MS/MS method.
# [5] = dorsal skin tissue homogenate, 1 mg/cm^2, mean
# [6] = mouse, topical or ocular, plasma, 1 mg/cm^2, mean
# [7] = Afatinib 50 mg/kg model, 1% ointment on left paw
# [8] = Afatinib 50 mg/kg model, 3% ointment on left paw
# [9] = Afatinib 50 mg/kg model, 10% ointment on left paw
# [10] = Erlotinib 70 mg/kg model, 1% ointment on left paw
# [11] = Erlotinib 70 mg/kg model, 3% ointment on left paw
# [12] = Erlotinib 70 mg/kg model, 10% ointment on left paw
# [13] = Osimertinib 60 mg/kg model, 1% ointment on left paw
# [14] = Osimertinib 60 mg/kg model, 3% ointment on left paw
# [15] = Osimertinib 60 mg/kg model, 10% ointment on left paw
# [16] = Sorafenib 100 mg/kg model, 1% ointment on left paw
# [17] = Sorafenib 100 mg/kg model, 3% ointment on left paw
# [18] = Sorafenib 100 mg/kg model, 10% ointment on left paw
smiles,measurement,setting,value
"NC(=O)[C@H]1CCCc2c1[nH]c1ccc(Cl)cc21 [Compound of formula (I), (S)-6-chloro-2,3,4,9-tetrahydro-1H-carbazole-carboxamide]",concentration at 24 h,"[1]; dorsal skin tissue homogenate, dorsal skin homogenate, 3% suspension ointment, read-out: Drug concentration in skin tissues at 24 h",161000 ng/g
same,concentration at 24 h,"[1]; dorsal skin tissue homogenate, dorsal skin homogenate, 10% suspension ointment, read-out: Drug concentration in skin tissues at 24 h",800000 ng/g
same,concentration at 24 h,"[1]; plasma, 3% suspension ointment, read-out: Plasma drug concentration at 24 h",3.21 ng/mL
same,concentration at 24 h,"[1]; plasma, 10% suspension ointment, read-out: Plasma drug concentration at 24 h",17.3 ng/mL
same,Plasma drug concentration at 24 h,[2]; 1 mg/cm^2,Below a lower detection limit
same,Drug concentration in skin tissues at 4 h,[2]; [5],"33,033 ng/g"
same,Drug concentration in skin tissues at 24 h,[2]; [5],"7,907 ng/g"
same,concentration at 4 h,"[2]; mouse, dorsal skin tissue homogenate, 1 mg/cm^2, mean, read-out: Drug concentration in skin tissues at 4 h",33000 ng/g
same,concentration at 24 h,"[2]; mouse, dorsal skin tissue homogenate, 1 mg/cm^2, mean, read-out: Drug concentration in skin tissues at 24 h",7910 ng/g
same,concentration at 4 h,"[2]; mouse, plasma, 1 mg/cm^2, mean, read-out: Plasma drug concentration at 4 h",6.15 ng/mL
same,Cmax,"[2]; mouse, topical or ocular, plasma, 1 mg/cm^2, 1 cm^2, mean",14 ng/mL
same,AUC(0-inf),[2]; [6],57.5 ng·h/mL
same,AUC(0-t),[2]; [6],40.7 ng·h/mL
same,MRT inf,[2]; [6],5.54 h
same,Tmax,[2]; [6],1.67 h
same,half-life,[2]; [6],5.15 h
same,AUC Extr,"[2]; plasma, 1 mg/cm^2, mean",18.9%
same,AUCInf/Dose,"[2]; plasma, 1 mg/cm^2, mean",1.63 kg·ng·h/mL/mg
same,"Incidence rate, left paw",[3]; [7],3/12 (25%)
same,"Incidence rate, left paw",[3]; [8],2/12 (17%)
same,"Incidence rate, left paw",[3]; [9],0/12 (0%)
same,"Incidence rate, right paw",[3]; [7],9/12 (75%)
same,"Incidence rate, right paw",[3]; [8],4/12 (33%)
same,"Incidence rate, right paw",[3]; [9],3/12 (25%)
same,"Incidence rate, left paw",[3]; [10],3/12 (25%)
same,"Incidence rate, left paw",[3]; [11],2/12 (17%)
same,"Incidence rate, left paw",[3]; [12],1/12 (8%)
same,"Incidence rate, right paw",[3]; [10],10/12 (83%)
same,"Incidence rate, right paw",[3]; [11],5/12 (42%)
same,"Incidence rate, right paw",[3]; [12],4/12 (33%)
same,"Incidence rate, left paw",[3]; [13],2/12 (17%)
same,"Incidence rate, left paw",[3]; [14],2/12 (17%)
same,"Incidence rate, left paw",[3]; [15],0/12 (0%)
same,"Incidence rate, right paw",[3]; [13],8/12 (67%)
same,"Incidence rate, right paw",[3]; [14],4/12 (33%)
same,"Incidence rate, right paw",[3]; [15],3/12 (25%)
same,"Incidence rate, left paw",[3]; [16],2/12 (17%)
same,"Incidence rate, left paw",[3]; [17],2/12 (17%)
same,"Incidence rate, left paw",[3]; [18],0/12 (0%)
same,"Incidence rate, right paw",[3]; [16],9/12 (75%)
same,"Incidence rate, right paw",[3]; [17],4/12 (33%)
same,"Incidence rate, right paw",[3]; [18],4/12 (33%)
same,concentration at 24 h,[4]; read-out: Drug concentration in dorsal dermis skin tissues at 24 h,88300 ng/g
same,concentration at 24 h,"[4]; abdominal skin tissue, read-out: Drug concentration in abdominal skin tissues at 24 h",111000 ng/g
same,concentration at 24 h,"[4]; plasma, read-out: Plasma drug concentration at 24 h",17.7 ng/mL
same,AUC(0-t),"[4]; topical or ocular, plasma",304 ng·h/mL
same,Cmax,"[4]; topical or ocular, plasma",21.6 ng/mL
same,MRT inf,"[4]; topical or ocular, plasma",15.2 h
same,Tmax,"[4]; topical or ocular, plasma",16 h
